From US8404738B2 (Hoffmann-La Roche Inc., priority 2011, dated 2013)

Key:
[1] = tested on: p21 promoter-luciferase construct; assay: p21 reporter gene induction (HeLa cells, p21 promoter-luciferase construct); details: for p21 RP3: relative gene level of p21 compared to MS275 at 3 μM; for p21 RP10: relative level of p21 compared to MS275 at 10 μM; for p21 RP30: relative level of p21 compared to MS275 at 30 μM;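 on all read-outs here: transfected HeLa cells exposed to compound for 15 h, luciferase luminescence read from lysates, p21 promoter lacks p53 site, proxy for cellular HDAC1/2/3 inhibition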
HDAC6 = molecular target: T1, HDAC6 (Homo sapiens, UniProt Q9UBN7); assay: Tubulin acetylation cytoblot assay (A549 cells); assay type: cell-based; details: 17-18 h incubation, tubulin acetylation as marker of HDAC6 inhibition, read-out: Tub-Ac EC50
T1 construct: endogenous in cells; host or cells: A549 cells
T1 sequence (Q9UBN7 1-1215): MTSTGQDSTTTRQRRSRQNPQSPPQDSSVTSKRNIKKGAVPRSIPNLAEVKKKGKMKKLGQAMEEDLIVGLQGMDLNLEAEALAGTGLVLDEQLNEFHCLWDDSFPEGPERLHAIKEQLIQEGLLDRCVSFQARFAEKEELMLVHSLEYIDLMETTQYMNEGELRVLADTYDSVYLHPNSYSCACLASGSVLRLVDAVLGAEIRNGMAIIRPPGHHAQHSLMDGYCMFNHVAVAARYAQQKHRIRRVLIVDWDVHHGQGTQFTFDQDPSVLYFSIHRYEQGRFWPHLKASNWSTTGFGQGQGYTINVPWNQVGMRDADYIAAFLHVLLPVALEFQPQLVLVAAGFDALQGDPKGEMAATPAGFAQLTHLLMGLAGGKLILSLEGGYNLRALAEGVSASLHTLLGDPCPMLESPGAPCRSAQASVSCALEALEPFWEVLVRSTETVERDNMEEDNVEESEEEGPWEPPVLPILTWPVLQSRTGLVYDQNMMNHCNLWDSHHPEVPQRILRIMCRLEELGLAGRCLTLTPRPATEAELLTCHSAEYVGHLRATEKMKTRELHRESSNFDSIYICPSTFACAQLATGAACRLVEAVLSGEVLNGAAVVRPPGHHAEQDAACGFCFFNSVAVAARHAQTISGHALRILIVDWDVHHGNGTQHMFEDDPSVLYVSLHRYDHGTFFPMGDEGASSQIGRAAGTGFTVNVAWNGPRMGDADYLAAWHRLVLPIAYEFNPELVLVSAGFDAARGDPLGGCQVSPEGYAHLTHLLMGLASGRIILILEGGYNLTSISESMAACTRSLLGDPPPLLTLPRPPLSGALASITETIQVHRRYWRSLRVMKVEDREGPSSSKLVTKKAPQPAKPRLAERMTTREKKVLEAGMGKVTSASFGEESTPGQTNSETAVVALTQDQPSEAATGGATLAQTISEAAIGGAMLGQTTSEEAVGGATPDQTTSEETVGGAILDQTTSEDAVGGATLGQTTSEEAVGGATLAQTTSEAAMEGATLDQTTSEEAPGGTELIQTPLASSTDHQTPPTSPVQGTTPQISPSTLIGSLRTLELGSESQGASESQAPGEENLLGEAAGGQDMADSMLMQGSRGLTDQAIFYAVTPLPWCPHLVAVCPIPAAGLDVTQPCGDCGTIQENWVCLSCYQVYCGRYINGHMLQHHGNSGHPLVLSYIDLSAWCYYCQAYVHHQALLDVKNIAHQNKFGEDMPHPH
In short: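 Cells were exposed to compound for 17-18 h, then fixed with formaldehyde and permeabilized with cold MeOH. They were probed for 4 h at 4° C with anti-acetylated tubulin plus HRP anti-mouse IgG (each 1:750), and read by ECL luminescence. EC50 values came from curves normalized to top and bottom controls.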

recombinant human HDAC8 = molecular target: T2, recombinant human HDAC8 (Homo sapiens, UniProt Q9BY41); assay: HDAC8 inhibition: recombinant HDAC8 fluorometric assay; assay type: biochemical; details: recombinant human HDAC8, substrate Ac-Arg-His-Lys-Lys(ε-acetyl)-AMC; read-out: HDAC8 IC50
T2 construct: made in house; host or cells: insect cells
T2 sequence (Q9BY41 1-377): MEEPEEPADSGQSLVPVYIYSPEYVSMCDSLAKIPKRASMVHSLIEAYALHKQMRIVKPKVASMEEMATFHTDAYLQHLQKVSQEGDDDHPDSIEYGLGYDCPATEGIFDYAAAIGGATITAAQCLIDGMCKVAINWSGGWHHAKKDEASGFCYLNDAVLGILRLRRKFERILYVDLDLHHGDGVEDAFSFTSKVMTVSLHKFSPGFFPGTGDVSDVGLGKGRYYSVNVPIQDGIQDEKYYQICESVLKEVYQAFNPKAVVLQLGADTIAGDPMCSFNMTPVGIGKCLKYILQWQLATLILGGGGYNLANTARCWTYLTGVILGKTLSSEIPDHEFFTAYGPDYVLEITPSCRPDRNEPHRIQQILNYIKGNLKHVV
In short: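 Recombinant human HDAC8 from insect cells was preincubated with compound for 15 min at rt, then given Ac-Arg-His-Lys-Lys(ε-acetyl)-AMC substrate for 30 min at rt. IC50 came from normalized percent inhibition with curve fitting.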

SMILES	p21 RP3 [1]	p21 RP10 [1]	p21 RP30 [1]	EC50 (HDAC6) [nM]	IC50 (recombinant human HDAC8) [nM]
O=C(NO)c1ccc(NC2CCN(c3cc(F)cc(Cl)c3)C2=O)cc1 (centres unmarked) [Example 21, 4-[1-(3-Chloro-5-fluoro-phenyl)-2-oxo-pyrrolidin-3-ylamino]-N-hydroxy-benzamide]	1.56	0.48	0.28	4690	1010
CC(C)(c1ccccc1Cl)N1CCC(Nc2ccc(C(=O)NO)cc2)C1=O (centres unmarked) [Example 48, 4-{1-[1-(2-Chloro-phenyl)-1-methyl-ethyl]-2-oxo-pyrrolidin-3-ylamino}-N-hydroxy-benzamide]	0.24	0.08	0.23	4600	680
O=C(NO)c1ccc(NC2CCN(c3ccccc3)C2=O)c(Cl)c1 (centres unmarked) [Example 69, 3-Chloro-N-hydroxy-4-(2-oxo-1-phenyl-pyrrolidin-3-ylamino)-benzamide]	0.36	0.15	−0.03	8230	850
CC1(Nc2ccc(C(=O)NO)cc2)CCN(c2cnc3ccccc3c2)C1=O (centres unmarked) [Example 61, N-Hydroxy-4-(3-methyl-2-oxo-1-quinolin-3-yl-pyrrolidin-3-ylamino)-benzamide]	0.46	0.09	0.17	8250	1420
O=C(NO)c1ccc(NC2CCN(c3ccc(Oc4ccccc4)cc3)C2=O)cc1 (centres unmarked) [Example 31, N-Hydroxy-4-[2-oxo-1-(4-phenoxy-phenyl)-pyrrolidin-3-ylamino]-benzamide]	0.09	0.07	0.05	9780	4140
CC1(Nc2ccc(C(=O)NO)cc2)C(=O)N(c2cccc(Cl)c2)c2ccc(F)cc21 (centres unmarked) [Example 98, 4-[1-(3-Chloro-phenyl)-5-fluoro-3-methyl-2-oxo-2,3-dihydro-1H-indol-3-ylamino]-N-hydroxy-benzamide]	2.13	3.06	0.00	190	1690
O=C(NO)c1ccc(NC2CCN(c3ccc(Cl)cc3Cl)C2)cc1 (centres unmarked) [Example 82, 4-[1-(2,4-Dichloro-phenyl)-pyrrolidin-3-ylamino]-N-hydroxy-benzamide]	0.14	−0.08	−0.06	1430	2360
O=C(NO)c1ccc(NC2CCN(c3cccc(-c4ccccc4)c3)C2=O)cc1 (centres unmarked) [Example 32, 4-(1-Biphenyl-3-yl-2-oxo-pyrrolidin-3-ylamino)-N-hydroxy-benzamide]	0.38	0.08	0.15	700	710
Cc1cc(F)cc(C)c1N1CCC(Nc2ccc(C(=O)NO)cc2)C1=O (centres unmarked) [Example 28, 4-[1-(4-Fluoro-2,6-dimethyl-phenyl)-2-oxo-pyrrolidin-3-ylamino]-N-hydroxy-benzamide]	0.04	0.01	0.01	4110	1860
CC1(Nc2ccc(C(=O)NO)cc2)C(=O)N(Cc2ccccc2)c2ccccc21 (centres unmarked) [Example 91, 4-(1-Benzyl-3-methyl-2-oxo-2,3-dihydro-1H-indol-3-ylamino)-N-hydroxy-benzamide]	2.06	2.66	0.84	5230	1280
